From PubChem BioAssay (NCI)
Values joined by “and” are separate entries in the source; they are usually repeats but may differ in a detail not shown here. Equal values may be shown once.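 Test compounds were applied to cells in 96-well plates for 48 hours at 5 doses. Abbreviation: GI50, concentration required for 50% inhibition of growth. The concentration for full growth arrest is given as TGI.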

Experiments:
Assay in all cases: NCI tumour cell line growth inhibition, 48 h
NCI/ADR-RES ovarian = system: NCI/ADR-RES ovarian
OVCAR-5 ovarian = system: OVCAR-5 ovarian
SK-OV-3 ovarian = system: SK-OV-3 ovarian
SF-539 CNS = system: SF-539 CNS
KM12 colon = system: KM12 colon
HCT-15 colon = system: HCT-15 colon
UO-31 renal = system: UO-31 renal
NCI-H460 lung = system: NCI-H460 lung
786-0 renal = system: 786-0 renal
TK-10 renal = system: TK-10 renal

Compound	GI50 (NCI/ADR-RES ovarian)	TGI (NCI/ADR-RES ovarian)	GI50 (OVCAR-5 ovarian)	TGI (OVCAR-5 ovarian)	GI50 (SK-OV-3 ovarian)	TGI (SK-OV-3 ovarian)	GI50 (SF-539 CNS)	TGI (SF-539 CNS)	GI50 (KM12 colon)	TGI (KM12 colon)	GI50 (HCT-15 colon)	TGI (HCT-15 colon)	GI50 (UO-31 renal)	TGI (UO-31 renal)	GI50 (NCI-H460 lung)	TGI (NCI-H460 lung)	GI50 (786-0 renal)	TGI (786-0 renal)	TGI (TK-10 renal)	GI50 (TK-10 renal)
CCCCS(=O)(=O)c1cc(Nc2ccc(O)c3c2C(=O)c2ccccc2C3=O)ccc1C	> 100 µM	> 100 µM	> 100 µM	> 100 µM	> 100 µM	> 100 µM	> 100 µM	> 100 µM	> 100 µM	> 100 µM	6.03 µM	> 100 µM	> 100 µM	> 100 µM	0.431 µM	> 100 µM	> 100 µM	> 100 µM		
COC(=O)CCC(NC(=S)N/N=C(\C)c1cccs1)C(=O)OC (configuration not stated)				> 100 µM		> 100 µM		> 100 µM		> 100 µM		> 100 µM		> 100 µM		> 100 µM		> 100 µM	> 100 µM	
C[C@]12CCC3c4ccc(O)cc4CCC3C1CC[C@@H]2NC(=O)/C=C/c1ccc(O)c(O)c1 (some centres not stated)	16.2 µM	41.7 µM	18.1 µM	35.9 µM	14.8 µM	31.6 µM			34.2 µM	> 100 µM	4.89 µM	19 µM	11.9 µM	47 µM	11.9 µM	35.3 µM	10.4 µM	29.2 µM	50.6 µM	13.8 µM
COc1ccc(-c2cn3ccnc3c(-c3ccc(Cl)cc3)n2)cc1	3.77 µM	28.2 µM	9.52 µM	> 100 µM	20.7 µM	> 100 µM	8.97 µM	58 µM	4.68 µM	> 100 µM	3.16 µM	> 100 µM	33.1 µM	> 100 µM	10.8 µM	> 100 µM	11.7 µM	> 100 µM		
CCOC(=O)NN1C(=O)C(=P(c2ccccc2)(c2ccccc2)c2ccccc2)C(C(=O)OC)=C1C				> 100 µM		> 100 µM		> 100 µM		> 100 µM		> 100 µM		> 100 µM		> 100 µM		> 100 µM	> 100 µM	
Cc1cccc(C=NC23CC4CC(CC(C4)C2)C3)c1				> 100 µM		> 100 µM		> 100 µM		> 100 µM		> 100 µM		> 100 µM		> 100 µM		> 100 µM	> 100 µM	
COc1ccc(/C=C(\C#N)c2cc(OC)c(OC)c(OC)c2)cc1			0.0424 µM	> 100 µM	< 0.0138 µM	0.221 µM	0.0199 µM	> 100 µM	< 0.01 µM	> 100 µM	0.0359 µM	> 100 µM	0.0389 µM	58.6 µM	0.0327 µM	23.6 µM	0.0309 µM	34.6 µM	> 100 µM	
CCCC(=O)Nc1cc(/C=C/C(=O)N2C[C@@H]3C[C@]34C2=CC(=O)c2[nH]cc(C)c24)n(C)c1	0.946 µM	6.38 µM and 4.77 µM	0.142 µM			7.97 µM		4.59 µM		2.6 µM		9.89 µM		4.34 µM	0.053 µM	2.51 µM and 0.394 µM	0.021 µM			
COC(=O)N[C@@H](C)CNc1nccc(-c2cn(C(C)C)nc2-c2cc(Cl)cc(NS(C)(=O)=O)c2F)n1	> 100 µM	> 100 µM	> 39.2 µM	> 100 µM	0.363 µM	> 100 µM	62.6 µM	> 100 µM	70.1 µM	> 100 µM	7.46 µM	> 100 µM	4.57 µM	> 100 µM			14.2 µM	> 100 µM	> 100 µM	> 100 µM
CCNC(=O)COc1ccc(Cl)c(C)c1				> 100 µM		> 100 µM		> 100 µM		> 100 µM		> 100 µM		> 100 µM		> 100 µM		> 100 µM	> 100 µM	
O=C(O)C(Cc1ccccc1)N1C(=O)/C(=C/C(Cl)=C/c2ccc([N+](=O)[O-])cc2)SC1=S (configuration not stated)	3.39 µM	> 100 µM	2.82 µM	7.9 µM	4.13 µM	> 100 µM			2.06 µM	4.35 µM	1.92 µM	4.58 µM	1.59 µM	3.1 µM			2.2 µM	5.02 µM		
O=C1C(=O)N(c2cc(Cl)ccc2Cl)C(=O)C(=O)C1c1nc2ccccc2s1				> 100 µM		> 100 µM		> 100 µM		> 100 µM		> 100 µM		90.8 µM		> 100 µM		> 100 µM	> 100 µM	
CCCCC[C@H]1C/C=C2/C(=O)C=C[C@@H]2C/C=C\CCCC(=O)O1	0.181 µM	1.13 µM	0.221 µM	2.73 µM	0.364 µM	6.11 µM	0.16 µM	0.67 µM			0.0937 µM	0.26 µM	0.0902 µM	0.171 µM	0.156 µM	5.38 µM	0.164 µM	0.489 µM	0.41 µM	0.171 µM
